The values that follow come from patent US8183380B2, “2-aminoquinolines” (Hoffmann-La Roche Inc., priority 2008, dated 2012).

The target of the assay is T1, recombinant human 5-HT5A receptor (Homo sapiens, UniProt P47898).
T1 construct: expressed in transfected cells; host or cells: HEK-EBNA (Human Embryonic Kidney-EBNA) cells, transient cDNA expression; membranes
T1 sequence (P47898 whole entry): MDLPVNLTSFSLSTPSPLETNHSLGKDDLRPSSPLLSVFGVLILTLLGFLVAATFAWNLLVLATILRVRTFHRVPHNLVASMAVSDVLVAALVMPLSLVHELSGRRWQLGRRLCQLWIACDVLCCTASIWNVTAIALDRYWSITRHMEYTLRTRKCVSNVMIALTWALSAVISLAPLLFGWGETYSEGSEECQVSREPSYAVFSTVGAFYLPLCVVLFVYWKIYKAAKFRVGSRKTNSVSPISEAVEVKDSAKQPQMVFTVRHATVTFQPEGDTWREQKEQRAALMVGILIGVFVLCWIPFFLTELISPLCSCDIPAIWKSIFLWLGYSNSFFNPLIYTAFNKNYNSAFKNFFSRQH
In words: [3H]LSD radioligand binding assay. Particulars: [3H]LSD (approximately 1 nM); membranes from transiently expressed 5-HT5A receptors in HEK-EBNA cells; Ki from IC50 by Cheng-Prussoff equation. Here is the method: A [^3H]LSD radioligand binding assay was used to determine the affinity of the compounds for the recombinant human 5-HT5A receptor, in membranes from transiently (cDNA) expressed 5-HT5A receptors in Human Embryonic Kidney-EBNA (HEK-EBNA) cells. Assay buffer consisted of Tris (50 mM) buffer containing 1 mM EGTA, 10 mM MgCl2 (pH 7.4) and 10 μM pargyline. The binding assay was carried out in 96-well-plates in the presence of [^3H]LSD (approximately 1 nM), approximately 2 μg/well of membrane protein, and 0.5 mg of Ysi-poly-1-lysine SPA beads in a final volume of 200 μl of buffer. Non-specific binding was defined using methiothepin 2 μM. Compounds were tested at 10 concentrations. All assays were conducted in duplicate and repeated at least two times. Assay plates were incubated for 120 min at room temperature before centrifugation. Bound ligand was determined using a Packard Topcount scintillation counter. IC50 values were calculated using a non-linear curve fitting program and Ki values calculated using the Cheng-Prussoff equation.
As to `O=C(Nc1ccc2nc(N[C@@H]3CCc4ccccc43)ccc2c1)NC1CCN(C2CC2)CC1` [Example 41, 1-(1-Cyclopropyl-piperidin-4-yl)-3-[2-((R)-indan-1-ylamino)-quinolin-6-yl]-urea], the Ki was found to be 4.1 nM. `CSCCN1CCC(NC(=O)Nc2ccc3nc(N[C@@H]4CCc5ccccc54)ccc3c2)CC1` [Example 48, 1-[2-((R)-Indan-1-ylamino)-quinolin-6-yl]-3-[1-(2-methylsulfanyl-ethyl)-piperidin-4-yl]-urea]: the inhibitory constant (Ki) came out at 7.7 nM. Consider `NC(=O)Nc1ccc2nc(N[C@@H]3CCc4ccccc43)ccc2c1` [Example 9, [2-((R)-Indan-1-ylamino)-quinolin-6-yl]-urea], for which the Ki is 2.9 nM. For the molecule `NC(=S)Nc1ccc2nc(N[C@@H]3CCc4ccccc43)ccc2c1` [Example 149, [2-((R)-Indan-1-ylamino)-quinolin-6-yl]-thiourea], the Ki was 14.8 nM. The same measure for `O=C(Nc1ccc2nc(NC3CCc4cc(F)ccc43)ccc2c1)C1CC1` (racemic) [Example 141, rac-Cyclopropanecarboxylic acid [2-(5-fluoro-indan-1-ylamino)-quinolin-6-yl]-amide]: 8.6 nM. On to `COc1cccc2c1C(Nc1ccc3cc(NC(=O)NC4CCN(C)CC4)ccc3n1)CC2` (racemic) [Example 40, rac-1-[2-(7-Methoxy-indan-1-ylamino)-quinolin-6-yl]-3-(1-methyl-piperidin-4-yl)-urea], for which the Ki is 2.2 nM. The same measure for `O=C(Nc1ccc2nc(N[C@@H]3CCc4ccccc43)ccc2c1)NC1CC2CCC1C2` (stereo partly drawn) [Example 26, 1-Bicyclo[2.2.1]hept-2-yl-3-[2-((R)-indan-1-ylamino)-quinolin-6-yl]-urea]: 4.8 nM; for `COc1cccc2c1C(Nc1ccc3cc(NS(=O)(=O)N(C)C)ccc3n1)CC2` (racemic) [Example 68, rac-N′-{2-[(7-methoxy-2,3-dihydro-1H-inden-1-yl)amino]quinolin-6-yl}-N,N-dimethylsulfamide]: 2.5 nM. The same measure for `COc1cccc2c1C(Nc1ccc3cc(NC(=O)CN4CCN(C)CC4)ccc3n1)CC2` (racemic) [Example 139, rac-N-[2-(7-Methoxy-indan-1-ylamino)-quinolin-6-yl]-2-(4-methyl-piperazin-1-yl)-acetamide]: 4.4 nM; for `CC(C)(C)NC(=O)Nc1ccc2nc(N[C@@H]3CCc4ccccc43)ccc2c1` [Example 8, 1-tert-Butyl-3-[2-((R)-indan-1-ylamino)-quinolin-6-yl]-urea]: 10.9 nM; for `O=C(Nc1ccc2nc(NC3CCc4cc(F)ccc43)ccc2c1)NC1CCN(CCO)CC1` (racemic) [Example 197, rac-1-[2-(5-Fluoro-indan-1-ylamino)-quinolin-6-yl]-3-[1-(2-hydroxy-ethyl)-piperidin-4-yl]-urea]: 3.5 nM. Next, `CNC(=O)Nc1ccc2nc(N[C@@H]3CCc4ccccc43)ccc2c1` [Example 7, 1-[2-((R)-Indan-1-ylamino)-quinolin-6-yl]-3-methyl-urea]: 3.4 nM. As to `COc1cccc2c1C(Nc1ccc3cc(NC(=O)N(C)C4CCN(CC(C)(C)O)CC4)ccc3n1)CC2` (racemic) [Example 191, rac-1-[1-(2-Hydroxy-2-methyl-propyl)-piperidin-4-yl]-3-[2-(7-methoxy-indan-1-ylamino)-quinolin-6-yl]-1-methyl-urea], the Ki came out at 6.9 nM.

Turning to `COc1cccc2c1C(Nc1ccc3cc(NC(=O)NC(C)C)ccc3n1)CC2` (single isomer, unassigned; (-)) [Example 13, (−)-1-Isopropyl-3-[2-(7-methoxy-indan-1-ylamino)-quinolin-6-yl]-urea], the Ki was determined as 0.9 nM. The same measure for `COc1ccc(C)c2c1C(Nc1ccc3cc(NC(=O)NC(C)C)ccc3n1)CC2` (racemic) [Example 93, rac-1-Isopropyl-3-[2-(7-methoxy-4-methyl-indan-1-ylamino)-quinolin-6-yl]-urea]: 8.7 nM. Next, `COc1cccc2c1C(Nc1ccc3cc(NC(=O)N(C)[C@@H]4C[C@H]5CC[C@@H](C4)N5C(C)C)ccc3n1)CC2` (mixture of isomers) [Example 188, rac-1-((3-exo)-8-Isopropyl-8-aza-bicyclo[3.2.1]oct-3-yl)-3-[2-(7-methoxy-indan-1-ylamino)-quinolin-6-yl]-1-methyl-urea]: 8.5 nM; `COc1cccc2c1C(Nc1ccc3cc(NC(=O)NC4CCN(C5CC5)CC4)ccc3n1)CCC2` (racemic) [Example 55, rac-1-(1-Cyclopropyl-piperidin-4-yl)-3-[2-(8-methoxy-1,2,3,4-tetrahydro-naphthalen-1-ylamino)-quinolin-6-yl]-urea]: 9.7 nM. Next, `CN(CCNC(=O)Nc1ccc2nc(N[C@@H]3CCc4ccccc43)ccc2c1)C1CC1` [Example 32, 1-[2-(Cyclopropyl-methyl-amino)-ethyl]-3-[2-((R)-indan-1-ylamino)-quinolin-6-yl]-urea]: 8.2 nM. For the molecule `CN1CCN(CC(=O)Nc2ccc3nc(N[C@@H]4CCc5ccccc54)ccc3c2)CC1` [Example 210, N-[2-((R)-Indan-1-ylamino)-quinolin-6-yl]-2-(4-methyl-piperazin-1-yl)-acetamide], the Ki came to 6.7 nM. The same measure for `O=C(Nc1ccc2nc(NC3CCc4cccc(F)c43)ccc2c1)C1CC1` (racemic) [Example 162, rac-Cyclopropanecarboxylic acid [2-(7-fluoro-indan-1-ylamino)-quinolin-6-yl]-amide]: 8.3 nM; for `O=S(=O)(Nc1ccc2nc(N[C@@H]3CCc4ccccc43)ccc2c1)N1CCCC1` [Example 73, Pyrrolidine-1-sulfonic acid [2-((R)-indan-1-ylamino)-quinolin-6-yl]-amide]: 3.2 nM. On to `COc1cccc2c1C(Nc1ccc3cc(NC(=O)NC4CCN(C(=O)CC(F)(F)F)CC4)ccc3n1)CC2` (racemic) [Example 52, rac-1-[2-(7-Methoxy-indan-1-ylamino)-quinolin-6-yl]-3-[1-(3,3,3-trifluoro-propionyl)-piperidin-4-yl]-urea], for which the Ki is 7.5 nM. The same measure for `CC(C)NC(=O)Nc1ccc2nc(N[C@@H]3CCc4ccccc43)ccc2c1` [Example 3, 1-[2-((R)-Indan-1-ylamino)-quinolin-6-yl]-3-isopropyl-urea]: 2.5 nM; for `COc1cccc2c1C(Nc1ccc3cc(NS(=O)(=O)N4C[C@@H]5C[C@H]4CO5)ccc3n1)CCC2` (stereo partly drawn) [Example 91, (1S,4S)-2-Oxa-5-aza-bicyclo[2.2.1]heptane-5-sulfonic acid [2-(8-methoxy-1,2,3,4-tetrahydro-naphthalen-1-ylamino)-quinolin-6-yl]-amide]: 6.8 nM; for `CN(C)S(=O)(=O)Nc1ccc2nc(N[C@@H]3CCc4ccccc43)ccc2c1` [Example 66, N′-{2-[(1R)-2,3-dihydro-1H-inden-1-ylamino]quinolin-6-yl}-N,N-dimethylsulfamide]: 5.6 nM.

Consider `COc1cccc2c1C(Nc1ccc3cc(NS(=O)(=O)N4C[C@@H]5C[C@H]4CO5)ccc3n1)CC2` (stereo partly drawn) [Example 148, (1S,4S)-2-Oxa-5-aza-bicyclo[2.2.1]heptane-5-sulfonic acid [2-(7-methoxy-indan-1-ylamino)-quinolin-6-yl]-amide], for which the Ki turned out to be 2.1 nM.

For `O=C(Nc1ccc2nc(N[C@@H]3CCc4ccccc43)ccc2c1)NC1CC1` [Example 21, 1-Cyclopropyl-3-[2-((R)-indan-1-ylamino)-quinolin-6-yl]-urea], the Ki is 3.9 nM.

`O=S(=O)(Nc1ccc2nc(N[C@@H]3CCc4ccccc43)ccc2c1)N1CCSCC1` [Example 78, Thiomorpholine-4-sulfonic acid [2-((R)-indan-1-ylamino)-quinolin-6-yl]-amide]: the Ki was 7 nM. Next, `CC(C)N1C2CCCC1CC(NC(=O)Nc1ccc3nc(NC4CCc5ccccc54)ccc3c1)C2` [Example 168, 1-[2-((R)-Indan-1-ylamino)-quinolin-6-yl]-3-((3-exo)-9-isopropyl-9-aza-bicyclo[3.3.1]non-3-yl)-urea]: 7.8 nM; `COc1cccc2c1C(Nc1ccc3cc(NC(=O)NC(C)C)ccc3n1)CCC2` (racemic) [Example 15, rac-1-Isopropyl-3-[2-(8-methoxy-1,2,3,4-tetrahydro-naphthalen-1-ylamino)-quinolin-6-yl]-urea]: 7.7 nM. Next, `CC(C)N1CCC(NC(=O)Nc2ccc3nc(NC4CCc5cc(F)ccc54)ccc3c2)CC1` (racemic) [Example 115, rac-1-[2-(5-Fluoro-indan-1-ylamino)-quinolin-6-yl]-3-(1-isopropyl-piperidin-4-yl)-urea]: 4 nM; `O=S(=O)(Nc1ccc2nc(N[C@@H]3CCc4ccccc43)ccc2c1)N1CCC2(CC1)OCCO2` [Example 82, 1,4-Dioxa-8-aza-spiro[4.5]decane-8-sulfonic acid [2-((R)-indan-1-ylamino)-quinolin-6-yl]-amide]: 22.2 nM. The same measure for `O=S(=O)(Nc1ccc2nc(N[C@@H]3CCc4ccccc43)ccc2c1)N1CCC(F)(F)C1` [Example 74, 3,3-Difluoro-pyrrolidine-1-sulfonic acid [2-((R)-indan-1-ylamino)-quinolin-6-yl]-amide]: 8.9 nM; for `COCCN1CCC(NC(=O)Nc2ccc3nc(N[C@@H]4CCc5ccccc54)ccc3c2)CC1` [Example 43, 1-[2-((R)-Indan-1-ylamino)-quinolin-6-yl]-3-[1-(2-methoxy-ethyl)-piperidin-4-yl]-urea]: 2.5 nM.
